# Assay results reported in patent US6613788B1, “Elevation of circulating blood histamine levels” (Maxim Pharmaceuticals, Inc., priority 1996, dated 2003).
# Tests used:
# H2-receptor [1] = target: T1, H2-receptor (Homo sapiens, UniProt P25021); settings: cited from earlier work
# H2-receptor [2] = target: T1, H2-receptor; settings: cited from earlier work; remark: listed apart in the source
# [3] = Description: Peripheral blood venous samples were drawn in 10 ml heparinized test tubes before the onset of treatment and weekly thereafter. […] The manufacturer's instructions provided with the kit, dated June, 1989, were followed. Blood histamine levels were measured at the indicated times.
# [4] = prior reports; cited from earlier work
# [5] = system: herpes simplex virus (HSV) type 2; settings: animals inoculated intravenously with HSV; cited from earlier work
# [6] = Effect of rate and duration of histamine administration on side effects and efficacy; settings: administered over longer than about 30 minutes
# [7] = system: Acute Myelogenous Leukernia; settings: IL-2 as the single agent; cited from earlier work
# T1 sequence (P25021 whole entry): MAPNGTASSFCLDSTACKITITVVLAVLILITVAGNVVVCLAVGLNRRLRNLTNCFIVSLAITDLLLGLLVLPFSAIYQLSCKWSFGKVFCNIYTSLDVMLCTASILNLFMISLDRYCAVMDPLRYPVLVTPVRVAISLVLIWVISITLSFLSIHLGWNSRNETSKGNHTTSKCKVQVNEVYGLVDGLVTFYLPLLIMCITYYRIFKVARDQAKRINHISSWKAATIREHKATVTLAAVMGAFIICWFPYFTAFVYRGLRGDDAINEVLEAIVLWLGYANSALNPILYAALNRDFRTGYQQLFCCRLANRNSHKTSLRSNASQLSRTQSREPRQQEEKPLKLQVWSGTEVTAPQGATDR
compound,measurement,setting,value
CN(C)CCCSC(=N)N [dimaprit],effect of histamine on granulocyte mediated suppression of antibody dependent cytotoxicity of NK cells,H2-receptor [1],mimicked
same,NK cell mediated cytotoxicity,H2-receptor [2],capable of augmenting NK cell mediated cytotoxicity
NCCc1c[nH]cn1 [histamine],persistence of circulating blood histamine levels,[3]; even after histamine administration was discontinued,remained elevated for sustained periods of time
same,circulating blood histamine levels following histamine administration,"[3]; histamine 0.4-0.7 mg s.c. twice daily with IL-2 for 21 days, samples at least 8 hours after last injection, beneficial = at least 0.2 μmole/L",rose to beneficial levels
same,half life in the blood,[4],five
same,survival time,[5],prolong survival time
same,efficacy on prolonged administration,[6],decreased or lack of efficacy
CNC(=C[N+](=O)[O-])NCCSCc1ccc(CN(C)C)o1 [ranitidine],effect of histamine on granulocyte mediated suppression of antibody dependent cytotoxicity of NK cells,H2-receptor [1],blocked
"IL-2: cytokine synthesized by T cells; human recombinant interleukin-2 (Proleukin, Eurocetus)",fraction of AML patients with inversion of remission time,[7],< 10%
